According to article PMC12667295, “A surrogate barrier model for high-throughput blood-brain barrier permeability prediction: integrating LLC-PK1-MOCK/MDR1 Cells and lysosomal trapping correction” (Drug Delivery, 2025):
Values joined by “and” are separate entries in the source; they are usually repeats but may differ in a detail not shown here. Identical values can stand only once. Like-named read-outs stand apart in the source and are kept apart here.

What was measured:
[1] = LLC-PK1 MOCK/MDR1 monolayer model, results stated for both cell lines jointly; settings: pig
Protocol: Monitoring of TEER value and LY permeability. After the LLC-PK1 MOCK/MDR1 cells attach to the Transwell insert, TEER (Transepithelial Electrical Resistance) values were continuously recorded using a cell resistance meter (Beijing JINGONGHONGTAI Technology Co., Ltd). These TEER values represent the mean from six individual inserts (n = 6) measured per group. The TEER measurement and transport experiment were conducted at 37 °C, using a heating plate to maintain the required temperature. The transmembrane resistance was calculated using the formula TEER = (Rtotal-Rblank) × Aarea, where Rblank represents the TEER of the blank chamber.
The permeability of the Lucifer Yellow CH Dipotassium Salt (LY, 100 μM) across the monolayers was measured in apical-to-basolateral direction to monitor the integrity of the cell monolayer.
Bidirectional transport experiments. […] The transwell experiments were conducted following above-mentioned procedure.

P-gp (human MDR1) [2] = test: Bidirectional transport across LLC-PK1-MDR1 monolayer stably expressing human MDR1 (P-gp) (Transwell); settings: pig;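 note: 2 h incubation at 37 °C, receiver HBSS with 10 mM Hepes plus 1% BSA, LC-MS/MS of donor and receiver, recovery as receiver plus donor amount over initial donor amount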
Protocol: (§3) The overexpression and functional activity of P-glycoprotein (P-gp) in the LLC-PK1-MDR1 cells were rigorously validated through multiple methods.
(§4) Cells were passaged at 80−90% confluence (every 2−3 days) using trypsin-EDTA solution. […] The culture medium was replaced every other day, including 200 µL culture medium in the apical and 850 µL cell culture medium in the basolateral side. LLC-PK1 MOCK cells were used at passages of 3−30. LLC-PK1-MDR1 cells were cultured and passaged in the same manner as LLC-PK1 cells except at the density of 1 × 10^4 cells per well. LLC-PK1-MDR1 cells were used at passages of 3−25. For LLC-PK1 MOCK cells and LLC-PK1-MDR1 cells, the experiments were performed on the 4th and 7th day after seeding.
(§5) Monitoring permeability of positive control drugs. […] Samples were collected from the donor well at the start of the incubation (50 µL) as C0, and from the donor and receiver wells at the end of the incubation (50 µL). All samples were stored at - 40 °C for LC-MS/MS analysis.
(§6) Bidirectional transport experiments. […] The transwell experiments were conducted following above-mentioned procedure. […] When the recovery rate of the tested drug is below 80%, the possibility of intracellular accumulation should be considered. The polycarbonate (PC) membrane where cells are grown should be carefully peeled off from the cell culture medium and placed in 100 µL of HBSS buffer solution. […] The process was carried out on ice to prevent heat-induced degradation, applying a power in the range of 300 W for a total duration of 20 minutes. Thereafter, a quantitative analysis of the intracellular drug was conducted, and the drug recovery rate was recalculated based on this analysis.
(§7) The apparent permeability coefficient (Papp, cm/s) was calculated for each transport direction, A-B and B-A, using the following equation: Papp=dQ/dt×1/A×C0 where dQ/dt is the permeation rate (µmol/s), A is the surface area of the insert (0.33 cm^2, Corning), and C0 is the initial donor concentration (µM).
(§8) The efflux ratio (ER) is calculated as the ratio of Papp (B-A)/Papp (A-B). Recovery=TRcumrf+Cdf×VD/Cdi×VD×100% Where TRcumrf is the cumulative transported mass in the receiver chamber at the end of the incubation (nmol), Cdf is the concentration of the drug in the donor chamber at the end of the incubation (μM), VD is the volume of the donor chamber (mL), and Cdi is the initial concentration of the drug in the donor chamber (μM).
(§9) The method of the bidirectional transport experiment was the same as before.

[3] = Bidirectional transport across LLC-PK1 MOCK monolayer (Transwell); settings: pig; for recovery at 2 h, 2 µM: pH 7.4, Recovery after correction of intracellular accumulation data, cell lysate included, mean±SD, n=3;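 for all read-outs here: compound quantified by LC-MS/MS in donor and receiver wells, efflux ratio as B-A over A-B Papp, recovery relative to initial donor amount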
[4] = set-up: method as in not given; settings: stated without method; ref not given; cited from earlier work
[5] = cited from earlier work
LLC-PK1-MDR1 cells [6] = system: LLC-PK1-MDR1 cells
Protocol: as §3, §4, §5, §6, §7, §8, §9

LLC-PK1-MDR1 cells [7] = test: Bidirectional transport across LLC-PK1-MDR1 monolayer stably expressing human MDR1 (P-gp) (Transwell);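 note: 2 h incubation at 37 °C, receiver HBSS with 10 mM Hepes plus 1% BSA, LC-MS/MS of donor and receiver, recovery as receiver plus donor amount over initial donor amount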
Protocol: as §3, §4, §5, §6, §7, §8, §9

in vitro [8] = settings: pig, LLC-PK1 MOCK cell monolayer (Transwell), pH 7.4
in vitro [9] = settings: rat, brain homogenate
Protocol: (§1) Stocks (10 mM) of test compounds were diluted to 5 μM with plasma or tissue homogenate and dialyzed at 37 °C for 6 hours in a shaking incubator. After incubation aliquots of both plasma or tissue homogenate and buffer from the device were taken and added to equal volumes of blank buffer and plasma or tissue homogenate respectively. Samples were then diluted in acetonitrile containing an internal standard prior to centrifugation and analysis of the supernatants by LC-MS/MS. The fu, plasma was calculated using Equation 1:(1) fu,plasma=Concbuffer chamber/Concsample chamber
Rat fraction unbound in brain (fu, brain) was determined as the ratio of concentration in buffer to that in brain.
(§2) Unbound fractions of test drugs in plasma (fu,plasma) and brain tissue (fu,brain). For compounds with existing rat plasma or brain protein-binding data from literature or internal studies, values were directly adopted.

LLC-PK1 MOCK cells = test: Bidirectional transport across LLC-PK1 MOCK monolayer (Transwell); settings: LLC-PK1 MOCK, 2 µM, 2 h, mean ± s, n = 3; BLQ = below 2 nM;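 note: compound quantified by LC-MS/MS in donor and receiver wells, efflux ratio as B-A over A-B Papp, recovery relative to initial donor amount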
[10] = footnote b, species not stated; ref https://go.drugbank.com; cited from earlier work
in vivo = settings: rat
From the text: In vivo unbound brain distribution data (Kp,uu,Brain) for 16 drugs and total brain distribution data (Kp,Brain) for 16 drugs was acquired from literature. […] For each tested compound, fifteen rats were randomly divided into five groups of three rats each. […] The time of execution of the rats by CO2 inhalation after administration was optimized according to the in vivo elimination rate to achieve five concentrations of different time points. After the rats were euthanized, cardiac puncture was performed immediately to remove as much whole blood as possible (~7 ml) from the systemic circulation (Quantitatively aliquot 0.2 ml of whole blood for the determination of drug concentration in plasma). Afterwards, the brain tissue was collected immediately and rinsed repeatedly with ice-cold saline 3 times. Then, the surface saline was blotted dry with clean filter paper to remove as much residual drug in the blood vessels as possible. Plasma samples were prepared by centrifugation of the blood samples at 2,500 g for 10 minutes at 4 °C. All brain samples were homogenized by adding 4-fold volume water. All samples were stored at -40 °C before LC-MS/MS analysis. […] The brain tissue partition coefficient (Kp, brain) and brain-to-plasma unbound drug partition ratio (Kp,uu, brain) are calculated according to the following formulas, respectively: Kp,brain=AUC(0−∞,brain)/AUC(0−∞,plasma)Kp,uu,brain=Kp,brain×(fu,tissue/fu,plasma)
Free brain-to-plasma distribution coefficients (Kp,uu,brain) of 41 drugs. Brain distribution coefficients (Kp,uu,brain) were calculated for 41 drugs. […] Plasma and brain concentration-time profiles were generated, and AUC(0-t) values for both matrices were calculated using WinNolin 8.1. Kp,brain was derived as the ratio of brain-to-plasma AUC(0-t).
Kp,uu,brain values were computed by normalizing Kp,brain to unbound fractions (fu,plasma and fu,brain).

P-gp (human MDR1) [11] = test: in vitro; settings: pig, LLC-PK1, pH 7.4
Protocol: as §3, §4, §5, §6, §7, §8, §9

in vitro [12] = settings: rat, plasma
Protocol: as §1, §2

[13] = LLC-PK1 MOCK and LLC-PK1-MDR1 cell monolayers (Transwell), pH 7.4, Recovery after cell lysate extraction, intracellular drug included
[14] = LLC-PK1 MOCK and LLC-PK1-MDR1 cell monolayers (Transwell), pH 7.4, Recovery, bidirectional transport, uncorrected
[15] = LLC-PK1 MOCK and LLC-PK1-MDR1 cell monolayers (Transwell), pH 7.4, with bafilomycin A1 1 µM (inhibitor of lysosomal function), Recovery, with 1 µM Bafilomycin A1, bidirectional transport
[16] = LLC-PK1, pH 7.4, ER, LLC-PK1-MDR1, Papp (B-A)/Papp (A-B)
[17] = LLC-PK1, pH 7.4, Papp A-B, LLC-PK1-MDR1, 2 µM, 2 h, mean ± s, n = 3
[18] = LLC-PK1, pH 7.4, ER, LLC-PK1 MOCK, Papp (B-A)/Papp (A-B)
[19] = LLC-PK1, pH 7.4, Papp A-B, LLC-PK1 MOCK, 2 µM, 2 h, mean ± s, n = 3, BLQ = below 2 nM
[20] = LLC-PK1 MOCK cell monolayer (Transwell), A-B, LLC-PK1 MOCK
[21] = LLC-PK1 MOCK cell monolayer (Transwell), B-A, LLC-PK1 MOCK

SMILES	recovery at 2 µM [1, 13] [%]	recovery at 2 µM [1, 14] [%]	recovery at 2 µM [1, 15] [%]	Papp B→A at 2 h, 2 µM (P-gp (human MDR1) [2]; LLC-PK1, pH 7.4) [×10⁻⁶ cm/s]	efflux ratio at 2 h, 2 µM (P-gp (human MDR1) [2]; [16])	Papp A→B at 2 h, 2 µM (P-gp (human MDR1) [2]; [17]) [×10⁻⁶ cm/s]	Papp B→A at 2 h, 2 µM ([3]; LLC-PK1, pH 7.4) [×10⁻⁶ cm/s]	efflux ratio at 2 h, 2 µM [3, 18]	Papp A→B at 2 h, 2 µM [3, 19] [×10⁻⁶ cm/s]	recovery at 2 h, 2 µM [3, 21] [%]	pKa [4]	Papp A→B at 2 h, 2 µM (P-gp (human MDR1) [2]; LLC-PK1, pH 7.4) [×10⁻⁶ cm/s]	recovery at 2 h, 2 µM (in vitro [8]) [%]	fraction unbound at 6 h, 5 µM (in vitro [9])	Papp A-B (LLC-PK1 MOCK cells)	recovery at 2 h, 2 µM (P-gp (human MDR1) [11]) [%]	fraction unbound at 6 h, 5 µM (in vitro [12])	other results
CN(C)CCC=C1c2ccccc2CCc2ccccc21 [Amitriptyline]	> 80	< 80	80 to 120	12.7 ± 1.19	1.85	6.84 ± 0.72	13.8 ± 1.58	1.38	9.98 ± 0.69	90 ± 9.68	> 7							recovery at 2 h, 2 µM [3, 20]: 80.01 ± 0.69%; Kp, Brain ([5]; ref Fridén [2009]): 20.15; Kp,uu,Brian ([5]; ref Fridén [2009]): 0.73
C[C@H]1O[C@@H](O[C@H]2[C@@H](O)C[C@H](O[C@H]3[C@@H](O)C[C@H](O[C@H]4CC[C@@]5(C)[C@H](CC[C@@H]6[C@@H]5C[C@@H](O)[C@]5(C)[C@@H](C7=CC(=O)OC7)CC[C@]65O)C4)O[C@@H]3C)O[C@@H]2C)C[C@H](O)[C@@H]1O [Digoxin]				7.79 ± 0.91			1.75 ± 0.07		1.91 ± 0.13			1.15 ± 0.28	95 ± 5.24					recovery (LLC-PK1-MDR1 cells [6]): 109 ± 16%; increase in apical-to-basolateral (A→B) permeability (LLC-PK1-MDR1 cells [7]; LLC-PK1-MDR1, with 5 μM tariquidar vs without): 3.97 fold; Papp at 2 h, 2 µM ([3]; LLC-PK1, pH 7.4): 2.17 ×10⁻⁶ cm/s; Papp at 2 h, 2 µM ([3]; LLC-PK1, pH 7.4, with tariquidar 5 µM (P-gp inhibitor)): 2.1 ×10⁻⁶ cm/s
COc1cccc2c1C(=O)c1c(O)c3c(c(O)c1C2=O)C[C@@](O)(C(=O)CO)C[C@@H]3O[C@H]1C[C@H](N)[C@H](O)[C@H](C)O1 [Doxorubicin]				3.47 ± 0.39			0.09 ± 0.01					0.95 ± 0.16		< 0.01	BLQ			Protein binding in plasma [10]: 75^b %; Kp uu (in vivo; SD, iv, 1 mg/kg): < 0.012; Kp (in vivo; SD, iv, 1 mg/kg, Kp, Brain): 0.291; Kp (in vivo; SD, iv, 1 mg/kg, Kp,uu,Brian): 0.012
CN(Cc1cnc2nc(N)nc(N)c2n1)c1ccc(C(=O)N[C@@H](CCC(=O)O)C(=O)O)cc1 [Methotrexate]				0.45 ± 0.05	0.81	0.55 ± 0.1							85.8 ± 4.58		BLQ	83.3 ± 5.67		Papp B-A (LLC-PK1 MOCK cells): BLQ; Kp, Brain ([5]; ref Fridén [2009]): 0.004; Kp,uu,Brian ([5]; ref Fridén [2009]): 0.006
COCCc1ccc(OCC(O)CNC(C)C)cc1 (stereo not shown) [Metoprolol]							24 ± 1.39		30.1 ± 3.88				114 ± 8.95			116 ± 1.08		Papp A-B (LLC-PK1-MDR1 cells [7]; LLC-PK1-MDR1, positive control drugs run with each batch (n = 15), 2 µM): exceeded 20 × 10^−⁶ cm/s; Papp A→B at 2 h, 2 µM ([3]; LLC-PK1, pH 7.4, Papp (A-B), LLC-PK1 MOCK, positive control drugs run with each batch (n = 15), 2 µM): > 20 ×10⁻⁶ cm/s
COCCOC(=O)C1=C(C)NC(C)=C(C(=O)OC(C)C)C1c1cccc([N+](=O)[O-])c1 (stereo not shown) [Nimodipine]				44.5 ± 5.11			46.2 ± 1.79		33.7 ± 2.08			32.2 ± 1.83	109 ± 7.08	< 0.01		114 ± 5.22		efflux ratio at 2 h, 2 µM (P-gp (human MDR1) [2]; LLC-PK1, pH 7.4): 1.39; efflux ratio at 2 h, 2 µM ([3]; LLC-PK1, pH 7.4): 1.37; Protein binding in plasma [10]: 95.0^b %; Kp uu (in vivo): < 0.451; Kp, Brain ([5]; ref Li [2020]): 2.25
Fc1ccc([C@@H]2CCNC[C@H]2COc2ccc3c(c2)OCO3)cc1 [Paroxetine]	> 80	< 80	80 to 120	10.9 ± 0.35	2.11	5.15 ± 0.55	14.8 ± 0.57	1.93	7.65 ± 0.2	92.7 ± 4.03	> 7		54.1 ± 1.86	< 0.01			0.021	recovery at 2 h, 2 µM [3, 20]: 97.6 ± 1.99%; Kp (in vivo; Kp,uu,Brian): 1.57; Kp, Brain ([5]; ref O’Brien et al. [2012]): 3.307
CC(C)(C)NCC(O)c1ccc(O)c(CO)c1 (stereo not shown) [Salbutamol]				2.66 ± 0.21	1.42	1.88 ± 0.35	0.21 ± 0.02						98.1 ± 2.21	0.315	BLQ	98.2 ± 0.36	0.78	Kp uu (in vivo): 0.01; Kp, Brain ([5]; footnote a, ref Internal data): 0.021^a
CCN(CC)CCNC(=O)c1c(C)[nH]c(/C=C2\C(=O)Nc3ccc(F)cc32)c1C [Sunitinib]	> 80	< 80	80 to 120	21.8 ± 1.08		2.23 ± 0.21	6.21 ± 0.2		9.31 ± 0.74	89.2 ± 8.92	> 7			< 0.01			0.017	recovery (LLC-PK1-MDR1 cells [6]): 116% and 97%; Kp (in vivo; SD, iv, 1 mg/kg, Kp, Brain): 0.965; Kp (in vivo; SD, iv, 1 mg/kg, Kp,uu,Brian): 0.563
COc1ccc2cc1Oc1ccc(cc1)C[C@H]1c3cc(c(OC)cc3CCN1C)Oc1c(OC)c(OC)cc3c1[C@H](C2)N(C)CC3 [Tetrandrine]				13 ± 2.24	8.4		4.19 ± 0.77	1.33			> 7	1.55 ± 0.29						recovery at 2 µM ([1]; pH 7.4, Recovery after cell lysate extraction, intracellular drug included): > 80%; recovery at 2 µM ([1]; pH 7.4, Recovery, bidirectional transport, uncorrected): < 80%; recovery at 2 µM ([1]; pH 7.4, Recovery, with 1 µM Bafilomycin A1, bidirectional transport): 80 to 120%; Papp A→B at 2 h, 2 µM ([3]; LLC-PK1, pH 7.4): 3.15 ± 0.23 ×10⁻⁶ cm/s; recovery at 2 h, 2 µM ([3]; A-B, LLC-PK1 MOCK): 54.1 ± 7.24%; recovery at 2 h, 2 µM ([3]; B-A, LLC-PK1 MOCK): 93.5 ± 6.72%; Kp, Brain ([5]; ref Wang [2024]): 24.3; Kp,uu,Brian ([5]; ref Wang [2024]): 0.80
